The nature of the data set: Pharmacokinetic study in rats: plasma 2C-B after IV/PO 2C-B or PO 2C-B prodrugs.

Structures are written as SMILES.

Take `COc1cc(CCNC(=O)C(F)(F)F)c(OC)cc1Br` [Example 5, N-(4-bromo-2,5-dimethoxyphenethyl)-2,2,2-trifluoroacetamide]: the “Plasma Concentrations of metabolite 2C-B Following Oral Dosing” value (shortened to “Plasma Concentrations”) by setting is: (oral dosing of 2C-B prodrug, rat, time 0.500 h, individual animal) “BLQ (BLQ: Below Lower Limit of Quanification (0.5 ng/mL))”; (oral dosing of 2C-B prodrug, rat, time 0.500 h, mean) “BLQ (BLQ: Below Lower Limit of Quanification (0.5 ng/mL))”; (oral dosing of 2C-B prodrug, rat, time 1.00 h, individual animal) “BLQ (BLQ: Below Lower Limit of Quanification (0.5 ng/mL))”; (oral dosing of 2C-B prodrug, rat, time 1.00 h, mean) “BLQ (BLQ: Below Lower Limit of Quanification (0.5 ng/mL))”; (oral dosing of 2C-B prodrug, rat, time 2.00 h, individual animal) “BLQ (BLQ: Below Lower Limit of Quanification (0.5 ng/mL))”; (oral dosing of 2C-B prodrug, rat, time 2.00 h, mean) “BLQ (BLQ: Below Lower Limit of Quanification (0.5 ng/mL))”. Further, the “Plasma Concentrations” value is “BLQ (BLQ: Below Lower Limit of Quanification (0.5 ng/mL))” (oral dosing of 2C-B prodrug, rat, time 4.00 h, individual animal); “BLQ (BLQ: Below Lower Limit of Quanification (0.5 ng/mL))” (oral dosing of 2C-B prodrug, rat, time 4.00 h, mean); “BLQ (BLQ: Below Lower Limit of Quanification (0.5 ng/mL))” (oral dosing of 2C-B prodrug, rat, time 7.00 h, individual animal); “BLQ (BLQ: Below Lower Limit of Quanification (0.5 ng/mL))” (oral dosing of 2C-B prodrug, rat, time 7.00 h, mean); “BLQ (BLQ: Below Lower Limit of Quanification (0.5 ng/mL))” (oral dosing of 2C-B prodrug, rat, time 24.0 h, individual animal); “BLQ (BLQ: Below Lower Limit of Quanification (0.5 ng/mL))” (oral dosing of 2C-B prodrug, rat, time 24.0 h, mean).

Regarding `COc1cc(CCN(C(=O)OC(C)(C)C)C(=O)OC(C)(C)C)c(OC)cc1Br` [Example 12, tert-butyl (4-bromo-2,5-dimethoxyphenethyl)(tert-butoxycarbonyl) carbamate], the “Plasma Concentrations” value by setting is: (prodrug oral 10 mg/kg, male SD rats, time 0.500 h, individual animals) “BLQ (BLQ: Below Lower Limit of Quanification (0.5 ng/mL))”; (prodrug oral 10 mg/kg, male SD rats, time 0.500 h, mean) “BLQ (BLQ: Below Lower Limit of Quanification (0.5 ng/mL))”; (prodrug oral 10 mg/kg, male SD rats, time 1.00 h, individual animals) “BLQ (BLQ: Below Lower Limit of Quanification (0.5 ng/mL))”; (prodrug oral 10 mg/kg, male SD rats, time 1.00 h, mean) “BLQ (BLQ: Below Lower Limit of Quanification (0.5 ng/mL))”; (prodrug oral 10 mg/kg, male SD rats, time 2.00 h, individual animals) “BLQ (BLQ: Below Lower Limit of Quanification (0.5 ng/mL))”; (prodrug oral 10 mg/kg, male SD rats, time 2.00 h, mean) “BLQ (BLQ: Below Lower Limit of Quanification (0.5 ng/mL))”. The “Plasma Concentrations” value runs as follows: (prodrug oral 10 mg/kg, male SD rats, time 4.00 h, individual animals) “BLQ (BLQ: Below Lower Limit of Quanification (0.5 ng/mL))”; (prodrug oral 10 mg/kg, male SD rats, time 4.00 h, mean) “BLQ (BLQ: Below Lower Limit of Quanification (0.5 ng/mL))”; (prodrug oral 10 mg/kg, male SD rats, time 7.00 h, individual animals) “BLQ (BLQ: Below Lower Limit of Quanification (0.5 ng/mL))”; (prodrug oral 10 mg/kg, male SD rats, time 7.00 h, mean) “BLQ (BLQ: Below Lower Limit of Quanification (0.5 ng/mL))”; (prodrug oral 10 mg/kg, male SD rats, time 24.0 h, individual animals) “BLQ (BLQ: Below Lower Limit of Quanification (0.5 ng/mL))”; (prodrug oral 10 mg/kg, male SD rats, time 24.0 h, mean) “BLQ (BLQ: Below Lower Limit of Quanification (0.5 ng/mL))”.

Source of the values: patent US20250049748A1, “ANALOGS OF 4-BROMO-2,5-DIMETHOXYPHENETHYLAMINE” (Terran Biosciences Inc., priority 2021, published 2025).
